What was measured:
[1] = tested on: human glioma U87MG subcutaneous xenografts; test: Human glioma U87MG subcutaneous xenografts in nude mice; assay type: in vivo, BALB/c nude mice; conditions: for Body Weight (g) D 21 / RTV (mean ± SD) / TV (mm^3, mean ± SD) D 21: D 21; for T/C (%): Day 21
Method: BALB/c nude female mice of 3-4 weeks old were used, and were provided by […] […] OF MATERIA MEDICA, CHINESE ACADEMY OF SCIENCES.
Human glioma U87MG cells were subcutaneously inoculated into the right axillary fossa of a nude mouse (5×10^6 cells/mouse). After a xenograft was formed, the tumor was transferred to a nude mouse for 1 passage.
Tumor tissues at the vigorous growth stage were removed and cut into pieces of approximately 1.5 mm^3. The tumor fragments were inoculated subcutaneously into the right axillary fossa of nude mice under aseptic conditions. The diameters of the subcutaneous xenografts in nude mice were measured with a vernier caliper. The animals were randomly grouped after the xenografts reached an average volume of about 90 mm^3. Compound I was administered orally at doses of 40 mg/kg, 20 mg/kg and 10 mg/kg twice a day for 21 consecutive days. An equal volume of a blank preparation was administered orally twice a day for 21 consecutive days. The positive control drug Axitinib was administered orally at a dose of 40 mg/kg group twice a day for 21 consecutive days. An equal volume of water for injection was administered to the animals in the solvent group. Throughout the experiment, the diameters of the xenografts were measured twice a week and the mice were weighed at the same time. The tumor volume (TV) was calculated as TV=½×a×b^2, where “a” and “b” denote the length and width of a tumor, respectively. The relative tumor volume (RTV) was calculated from the measurement results with the calculation formula RTV=Vt/V0, in which V0 is the tumor volume measured upon administration after grouping (i.e., D0) and Vt is the tumor volume from each measurement. The evaluation index of anti-tumor activity is the relative tumor proliferation rate T/C (%), which is calculated as T/C (%)=(TRTV/CRTV)×100%, in which TRTV denotes the RTV from the treatment group and CRTV denotes the RTV from solvent group.

[2] = tested on: macrophage marker F4/80 in HT-29 tumor tissues; test: Immunohistochemistry of macrophage marker F4/80 in HT-29 tumor tissues; assay type: in vivo, nude mice; conditions: Compound I 5, 10, 20 mg/kg; Axitinib 40 mg/kg
Method: At the end of the in vivo experiments, U87MG and HT-29 xenografts in nude mice were removed and fixed with […] to prepare paraffin sections. Expression of individual proteins was assessed using multiplicative quick score method (MQS). This evaluation method takes into account both the staining intensity and the staining range. […] The average intensity score of positive stained cells was 0 to 3 (0=no staining; 1=weak staining; 2=moderate staining; 3=strong staining). The total score a (minimum 0 and maximum 18) is then calculated by multiplying the range score by the intensity score.

[3] = tested on: BMDM cells; test: CCK8 cell proliferation inhibition assay on CSF1-stimulated bone marrow-derived macrophages; assay type: cell-based, mice (BALB/c); conditions: Mus musculus, 72 h exposure
Method: Mice (BALB/c) were subjected to euthanasia and then immersed in 75% alcohol for 3-5 min. The tibias and femurs of the mice were removed with ophthalmic forceps and ophthalmic clips on an ultraclean table. The tibial and femoral joints were cut off and bone marrow cells were washed out with a sterile buffer. Bone marrow cells were filtered with a 70 µm nylon membrane. The filtrate was centrifuged and the supernatant was discarded. An erythrocyte lysate was added to the pellets, which were allowed to incubate for 3-4 min. Then, a sterile buffer was added to stop the lysis reaction. The reactant was centrifuged and the supernatant was discarded, thereby yielding bone marrow cell pellets. The cells were cultured in 1640 medium (supplemented with FBS and 10 ng/mL of CSF1) for 5 to 7 days and identified as macrophages by flow cytometry. CCK8 cell counting kits were used in this assay. Bone marrow-derived macrophages, after induction by CSF1 for 5 to 7 days, were seeded into 96-well culture plates and allowed to incubate overnight. Then, the cells were exposed to compounds at various concentrations for 72 h. A blank control group was set. 10 μL of CCK8 reagent was added to each well and the places were placed in an incubator for 4 to 12 h. The plates were read with a microplate reader at a wavelength of 450 nm. […] Each experiment was independently repeated for three times.

[4] = tested on: mouse astrocytoma DBT subcutaneous xenografts; test: Mouse astrocytoma DBT subcutaneous tumor model, alone or combined with anti-PD-1 antibody; assay type: in vivo, BALB/c mice; conditions: alone, 5 mg/kg po twice a day, 28 days
Method: Mouse astrocytoma DBT cell suspensions were injected subcutaneously into the right axillary fossa of BALB/c mice under aseptic conditions. The diameters of the subcutaneous xenografts in nude mice were measured with a vernier caliper. The animals were randomly grouped after the xenografts reached an average volume of 100 to 200 mm^3. Compound I was administered orally at a dose of 5 mg/kg (alone or in combination with an anti-PD-1 antibody) twice a day for 28 consecutive days. An anti-PD-1 antibody (Bio X Cell, InVivoMAb anti-mouse PD-1 (CD279) (cat. No. BE0146)) was administered intraperitoneally at a dose of 10 mg/kg (alone or in combination with Compound I) once every three days for 28 consecutive days. Throughout the experiment, the diameters of the xenografts were measured twice a week and the mice were weighed at the same time. The tumor volume (TV) was calculated as TV=½×a×b^2 where “a” and “b” denote the length and width of a tumor, respectively. The relative tumor volume (RTV) was calculated from the measurement results with the calculation formula RTV=Vt/V0, in which V0 is the tumor volume measured upon administration after grouping (i.e., D0) and Vt is the tumor volume from each measurement.
For all dose groups, n=9. The experimental data were analyzed for significant differences using the t-test. […]

Cc1cc(NC(=O)c2cccc3cc(-c4cccc5[nH]nc(N)c45)ccc23)ccc1F [Compound I]
Body Weight (g) D 0 ([1]; 10 mg/kg bid × 21 po): 15.7 g
TV (mm^3, mean ± SD) D 0 ([1]; 10 mg/kg bid × 21 po): 87 ± 17 mm^3
Body Weight (g) D 21 ([1]; 10 mg/kg bid × 21 po): 17.3 g
RTV (mean ± SD) ([1]; 10 mg/kg bid × 21 po): 3.57 ± 1.06
TV (mm^3, mean ± SD) D 21 ([1]; 10 mg/kg bid × 21 po): 302 ± 72 mm^3
T/C (%) ([1]; 10 mg/kg bid × 21 po): 11.91%
Body Weight (g) D 0 ([1]; 20 mg/kg bid × 21 po): 16.7 g
TV (mm^3, mean ± SD) D 0 ([1]; 20 mg/kg bid × 21 po): 87 ± 17 mm^3
Body Weight (g) D 21 ([1]; 20 mg/kg bid × 21 po): 16.9 g
RTV (mean ± SD) ([1]; 20 mg/kg bid × 21 po): 2.44 ± 1.58
TV (mm^3, mean ± SD) D 21 ([1]; 20 mg/kg bid × 21 po): 200 ± 100 mm^3
T/C (%) ([1]; 20 mg/kg bid × 21 po): 8.14%
Body Weight (g) D 0 ([1]; 40 mg/kg bid × 21 po): 17.0 g
TV (mm^3, mean ± SD) D 0 ([1]; 40 mg/kg bid × 21 po): 87 ± 15 mm^3
Body Weight (g) D 21 ([1]; 40 mg/kg bid × 21 po): 17.6 g
RTV (mean ± SD) ([1]; 40 mg/kg bid × 21 po): 2.93 ± 0.50
TV (mm^3, mean ± SD) D 21 ([1]; 40 mg/kg bid × 21 po): 251 ± 37 mm^3
T/C (%) ([1]; 40 mg/kg bid × 21 po): 9.77%
expression of F4/80, HT-29 tumor tissue [2]: inhibited the expression of F4/80 and CD206 in a dose-dependent manner
IC50 [3]: 93 nM
in vivo growth of DBT tumors [4]: no significant inhibitory activity

— patent publication US20230382871A1, “CSF1R KINASE INHIBITOR AND USE THEREOF” (SHANGHAI INSTITUTE OF MATERIA MEDICA, CHINESE ACADEMY OF …, priority 2020, published 2023)
